The target in the experiment is T1, XfOhr (Ohr from Xylella fastidiosa) (Xylella fastidiosa, UniProt Q9PCF4).
T1 construct: gene XF_1827
T1 sequence (Q9PCF4 1-143): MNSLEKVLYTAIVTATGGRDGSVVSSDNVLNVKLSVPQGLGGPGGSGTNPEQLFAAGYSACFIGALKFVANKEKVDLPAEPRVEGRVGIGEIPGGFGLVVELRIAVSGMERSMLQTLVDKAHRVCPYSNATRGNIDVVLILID

For the molecule `NC(=O)CCCC[C@@H](S)CCS` [dihydrolipoamide], the “lipoamide-lipoamide dehydrogenase peroxidase-coupled assay, NADH decay at 340 nm” value was “XfOhr R19A and XfOhr E51A presented only residual dihydrolipoamide-dependent peroxidase activity”.

These data come from PMC5962072, “Structural insights on the efficient catalysis of hydroperoxide reduction by Ohr: Crystallographic and molecular dynamics approaches” (PLoS ONE, 2018).
